Laboratory results published in the NIST ThermoML archive (doi:10.1021/je0601457).
± gives the expanded uncertainty stated by the source.

Assay: xn = mol fraction of the nth substance listed

Cc1nccnc1C [2,3-dimethylpyrazine] + O=C=O
Fluid (supercritical or subcritical phases), Linear displacement technique
Conditions	mass density [kg/m3]
311.45 K, 9210 kPa, x1 = 0.184	918 ± 37
311.45 K, 12380 kPa, x1 = 0.184	925 ± 37
311.45 K, 16720 kPa, x1 = 0.184	932 ± 37
312.65 K, 10170 kPa, x1 = 0.033	763 ± 31
312.65 K, 12660 kPa, x1 = 0.033	804 ± 33
312.65 K, 15970 kPa, x1 = 0.033	851 ± 34
312.75 K, 8520 kPa, x1 = 0.057	874 ± 35
312.75 K, 9970 kPa, x1 = 0.057	905 ± 37
312.75 K, 10450 kPa, x1 = 0.057	914 ± 38
313.95 K, 10520 kPa, x1 = 0.108	879 ± 35
313.95 K, 13660 kPa, x1 = 0.108	888 ± 36
313.95 K, 17210 kPa, x1 = 0.108	896 ± 36
314.25 K, 9830 kPa, x1 = 0.01	500 ± 40
314.25 K, 11830 kPa, x1 = 0.01	769 ± 32
314.25 K, 18590 kPa, x1 = 0.01	799 ± 32
315.85 K, 9380 kPa, x1 = 0.086	702 ± 29
315.85 K, 12310 kPa, x1 = 0.086	728 ± 29
315.85 K, 16520 kPa, x1 = 0.086	752 ± 30
315.85 K, 24210 kPa, x1 = 0.086	786 ± 31
316.05 K, 7480 kPa, x1 = 0.291	857 ± 34
316.05 K, 8660 kPa, x1 = 0.291	858 ± 34
316.05 K, 11340 kPa, x1 = 0.291	858 ± 35
316.25 K, 6170 kPa, x1 = 0.565	923 ± 37
316.25 K, 10000 kPa, x1 = 0.565	926 ± 37
316.25 K, 16380 kPa, x1 = 0.565	935 ± 37
317.35 K, 5590 kPa, x1 = 0.736	859 ± 34
317.35 K, 11590 kPa, x1 = 0.736	860 ± 34
317.35 K, 16450 kPa, x1 = 0.736	862 ± 34
318.75 K, 7690 kPa, x1 = 0.433	955 ± 38
318.75 K, 16070 kPa, x1 = 0.433	969 ± 39
318.75 K, 22930 kPa, x1 = 0.433	977 ± 39
319.35 K, 10520 kPa, x1 = 0.049	834 ± 34
319.35 K, 15340 kPa, x1 = 0.049	906 ± 36
319.35 K, 18660 kPa, x1 = 0.049	946 ± 38
321.05 K, 10210 kPa, x1 = 0.157	927 ± 38
321.05 K, 12000 kPa, x1 = 0.157	937 ± 38
321.05 K, 16280 kPa, x1 = 0.157	958 ± 38
321.05 K, 18660 kPa, x1 = 0.157	970 ± 39
322.35 K, 11790 kPa, x1 = 0.027	717 ± 30
322.35 K, 13000 kPa, x1 = 0.027	688 ± 28
322.35 K, 13410 kPa, x1 = 0.027	761 ± 47
322.35 K, 15620 kPa, x1 = 0.027	757 ± 31
322.35 K, 16310 kPa, x1 = 0.027	812 ± 33
323.35 K, 10660 kPa, x1 = 0.057	815 ± 33
323.35 K, 11970 kPa, x1 = 0.057	849 ± 34
323.35 K, 16030 kPa, x1 = 0.057	904 ± 36
324.95 K, 7830 kPa, x1 = 0.433	944 ± 38
324.95 K, 13900 kPa, x1 = 0.433	955 ± 38
324.95 K, 20660 kPa, x1 = 0.433	968 ± 39
325.25 K, 6140 kPa, x1 = 0.736	859 ± 34
325.25 K, 10720 kPa, x1 = 0.736	860 ± 34
325.25 K, 18170 kPa, x1 = 0.736	861 ± 34
325.65 K, 10520 kPa, x1 = 0.184	894 ± 36
325.65 K, 12660 kPa, x1 = 0.184	903 ± 36
325.65 K, 18030 kPa, x1 = 0.184	916 ± 37
328.55 K, 10170 kPa, x1 = 0.291	857 ± 35
328.55 K, 10660 kPa, x1 = 0.01	438 ± 63
328.55 K, 10970 kPa, x1 = 0.01	552 ± 44
328.55 K, 11970 kPa, x1 = 0.01	635 ± 32
328.55 K, 12140 kPa, x1 = 0.291	858 ± 34
328.55 K, 13000 kPa, x1 = 0.01	688 ± 29

Liquid, linear displacement
Conditions	mass density [kg/m3]
311.45 K, x1 = 0.184	912 ± 36
312.65 K, x1 = 0.033	694 ± 28
312.75 K, x1 = 0.057	860 ± 35
313.95 K, x1 = 0.108	864 ± 35
314.25 K, x1 = 0.01	584 ± 23
315.85 K, x1 = 0.086	687 ± 28
316.05 K, x1 = 0.291	858 ± 35
316.25 K, x1 = 0.565	920 ± 37
317.35 K, x1 = 0.736	859 ± 35
318.75 K, x1 = 0.433	951 ± 38
319.35 K, x1 = 0.049	790 ± 32
321.05 K, x1 = 0.157	912 ± 37
322.35 K, x1 = 0.027	612 ± 25
323.35 K, x1 = 0.057	784 ± 31
324.95 K, x1 = 0.433	940 ± 38
325.25 K, x1 = 0.736	857 ± 35
325.65 K, x1 = 0.184	885 ± 35
